Laboratory results reported in patent US20250136617A1 (The Regents of the University of Colorado, A Body Corporate, priority 2022, published 2025).
“Also recorded” adds a separate entry of the source.

How the values were obtained:
CXCR4 = CXCR4 (Homo sapiens, UniProt P61073); test: Tag-Lite CXCR4 binding assay (displacement of fluorescent SDF-1α)
Description: Binding activity was measured using the Cisbio Tag-Lite Chemokine CXCR4 system (CisBio, Bedford, MA). […] Following three-hour incubation, HTRF measurements were taken using the BMG LABTECH CLARIOstar Plus (BMG LABTECH Inc., Cary, NC) with emission signals set to the Cisbio Tag-Lite Binding Assay supplier guidelines. HTRF ratio calculations completed according to supplier guidelines.

miR-15b = test: qPCR of miR-15b expression in human dermal fibroblasts; format: cell-based; conditions: 24 hours, 0.1, 1 and 10 uM
Description: An additional secondary screen was performed to further validate activity of UCUF-728 as a selective CXCR4 receptor modulator. Human diabetic and non-diabetic fibroblasts were cultured with increasing concentrations of the compound. The cells were incubated for 24 hours and then total cellular RNA was isolated to examine the ability of the compound to correct the abnormal expression of miR15b, and miR29a. It has been shown that human diabetic skin has increased miR-15b expression at baseline compared to non-diabetic skin (Xu et al. “The role of microRNA-15b in the impaired angiogenesis in diabetic wounds.” Wound Repair Regen 2014; 22(5):671-7).
Diabetic and non-diabetic fibroblasts were cultured with increasing concentrations of a UCUF-965 compound. The cells were incubated for 24 hours and then total cellular RNA was isolated to examine the ability of the compound to correct the abnormal expression of miR15b, and miR29a. Angiogenesis is regulated by hypoxia and the production of growth factors such as Hypoxia-inducible Factor 1-alpha (HIF-1a) and Vascular Endothelial Growth Factor (VEGF). […] MicroRNA-15b (miR-15b) has been described as a key negative modulator of angiogenesis. Under hypoxia, miR-15b is repressed, resulting in an increased level of VEGF. Over-expression of miR-15b also markedly attenuates hypoxia induced vessel tube formation and cell migration. […]

CXCR4, sequence (P61073 whole entry): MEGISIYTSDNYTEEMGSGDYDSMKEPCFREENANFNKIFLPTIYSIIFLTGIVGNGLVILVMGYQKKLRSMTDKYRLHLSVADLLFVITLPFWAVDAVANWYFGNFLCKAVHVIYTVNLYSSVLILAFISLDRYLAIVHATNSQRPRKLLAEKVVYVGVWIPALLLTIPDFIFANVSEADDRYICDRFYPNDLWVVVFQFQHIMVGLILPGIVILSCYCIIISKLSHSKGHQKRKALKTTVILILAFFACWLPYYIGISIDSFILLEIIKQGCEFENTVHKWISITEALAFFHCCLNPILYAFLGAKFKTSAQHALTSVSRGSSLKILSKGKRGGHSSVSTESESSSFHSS

Compound	displacement of SDF-1α binding (CXCR4; listed as UCUF-728)	miR-15b expression (miR-15b; listed as UCUF-728)	displacement of SDF-1α binding (CXCR4; listed as UCUF-965)	miR-15b expression (miR-15b; listed as UCUF-965)
COc1ccc(OC)c(NS(=O)(=O)c2ccc(-c3cnc(C4CC4)o3)cc2)c1 [Oxazole Entry 19, 4-(2-Cyclopropyloxazol-5-yl)-N-(2,5-dimethoxyphenyl)benzenesulfonamide]	did not displace SDF-1α binding; also recorded: did not displace SDF-1a saturation binding	decreased expression of miR-15b; also recorded: potent suppression of miR-15b expression	–	–
CCOc1ccccc1-c1nnc2n1N=C(c1ccc(N3CCCC3)cc1)CS2 [Thiadiazine Entry 23, 3-(2-ethoxyphenyl)-6-(4-(pyrrolidin-1-yl)phenyl)-7H-[1,2,4]triazolo[3,4-b][1,3,4]thiadiazine]	–	–	did not displace fluorescently labelled SDF-1α binding; also recorded: did not displace SDF-1α saturation binding; also recorded: did not competitively displace	decreased expression of miR-15b
